≈ marks a conversion by molar mass, not a printed value. Peptide text beside a SMILES is read from it. * marks the point of attachment. NHPhenethyl = c1ccc(CCN*)cc1; NHBn = c1ccc(CN*)cc1
How the values were obtained:
E. coli = assay: Minimal inhibitory concentration; format: cell-based
Experimental: (§1) A further compound was prepared according to the methods of the invention and Minimal Inhibitory Concentration (MIC) values obtained against a range of bacteria. • H-Arg-Tbt-Arg-NH(CH2)2 (2-Br-phenyl) Saponification of Boc-Arg-Tbt-Arg-OMe
(§2) Minimal inhibitory concentration (mg/l),

MRSA = assay: Minimal inhibitory concentration; format: cell-based
Experimental: as §1, §2

S. aureus = assay: Minimal inhibitory concentration; format: cell-based
Experimental: as §1, §2

Str. pyogenes = assay: Minimal inhibitory concentration; format: cell-based
Experimental: as §1, §2

trypsin = trypsin (Bos taurus, UniProt P00760); assay: in vitro; details: bovine, isolated trypsin from bovine pancreas, pH 8.6
Chain of trypsin (P00760 24-246): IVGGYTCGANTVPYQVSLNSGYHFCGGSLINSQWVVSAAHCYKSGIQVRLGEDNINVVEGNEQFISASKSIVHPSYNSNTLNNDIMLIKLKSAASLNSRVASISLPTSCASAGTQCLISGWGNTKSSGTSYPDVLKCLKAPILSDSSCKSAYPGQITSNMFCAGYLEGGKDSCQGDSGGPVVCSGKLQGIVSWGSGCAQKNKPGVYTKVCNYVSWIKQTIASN
Experimental: Essentially salt-free trypsin from bovine pancreas, (T8802, 10000-15000 BAEE units/mg protein) was supplied by Sigma-Aldrich.
Each peptide was dissolved in a 0.1 M NH4HCO3 buffer (pH 6.5) to yield a final peptide concentration of 1 mg/ml. A trypsin solution was prepared by dissolving 1 mg of trypsin in 50 ml 0.1 M NH4HCO3 buffer (pH 8.2). For the stability determination, 250 μl freshly made trypsin solution and 250 μl peptide solution were incubated in 2 ml of 0.1 M NH4HCO3 buffer (pH 8.6) at 37° C. on a rocking table. Aliquots of 0.5 ml were sampled at different time intervals, diluted with 0.5 ml water:acetonitrile (60:40 v/v) containing 1% TFA and analysed by RP-HPLC as described above. Samples without trypsin addition taken at 0 h and after 20 h at 37° C. were used as negative controls. […] The plotted kinetic profiles were made on GraphPad Prism 4c.
The identity of the metabolites from the tryptic degradation was either determined by preparative trypsin degradation of the peptide, purification and structural determination by ESMS, or by chemical synthesis of authentic reference samples.

What does the source list for `CC(C)(C)c1cc(C(C)(C)C)c2[nH]c(C(C)(C)C)c(C[C@H](NC(=O)[C@@H](N)CCCNC(=N)N)C(=O)N[C@@H](CCCNC(=N)N)C(=O)NCCc3ccccc3Br)c2c1` [—(CH2)2-(2-BrPh), H-Arg-Tbt-Arg-NH(CH2)2 (2-Br-phenyl)]?
Minimal inhibitory concentration (E. coli): 6 µg/mL (≈ 6.92 µM); Minimal inhibitory concentration (MRSA): 3 µg/mL (≈ 3.46 µM); Minimal inhibitory concentration (S. aureus): 3 µg/mL (≈ 3.46 µM); Minimal inhibitory concentration (Str. pyogenes): 3 µg/mL (≈ 3.46 µM)

Which half-life at 0.1 mg/ml (trypsin) does the source give for `N=C(N)NCCC[C@H](NC(=O)[C@H](Cc1c[nH]c2ccccc12)NC(=O)[C@@H](N)CCCNC(=N)N)C(=O)NCCc1ccccc1` [F] (H-Arg-Trp-Arg-NHPhenethyl) here?
Its half-life at 0.1 mg/ml is 7 h.

Which half-life at 0.1 mg/ml (trypsin) does the source give for `N=C(N)NCCC[C@H](NC(=O)[C@H](Cc1c[nH]c2ccccc12)NC(=O)[C@@H](N)CCCNC(=N)N)C(=O)NCc1ccccc1` [E] (H-Arg-Trp-Arg-NHBn) here?
Its half-life at 0.1 mg/ml is 1 h.

From patent US9212202B2, “Methods of peptide modification” (Lytix Biopharma AS, priority 2007, dated 2015)
